Laboratory results as given in patent US4073938A, “19,20-Bis-nor-prostenoic acids as hypolipemic compounds” (Istituto Biochimico Italiano di Loredana Lorenzini S.a.s., priority 1974, dated 1978).
Counter-ions that a name gives are not always drawn.

Assays:
[1] = tested on: ulcer induced by aspirin; assay: Anti-ulcerous activity, ulcer from aspirin (9-keto sodium salt); format: in vivo, Female rats of the Wistar stock
Experimental: The anti-ulcerous activity of the compound in question is tested on an ulcer induced by aspirin and on an ulcer induced by phenyl butazone. In both models the mucous lesions are localized in the glandular section of the stomach.
Female rats of the Wistar stock weighing 150-175 g were selected. 24 hours before the start of the test the animals were made to fast, allowing water at will.
Each test group consists of 12 animals. The aspirin is administered orally in the form of a suspension (45 mg in ml of 0.5% carboxymethylcellulose for each animal). The application of the sodium salt in question takes place either intravenously (2 × 5 mg or 1 × 50 mg of substance/kg in 2 ml of 0.9% sodium chloride solution) or orally (2 × 10 mg or 2 × 100 mg of substance/kg in 2 ml of 0.5% carboxymethylcellulose suspension). The first dose is administered 10 minutes before application of the aspirin, and the second dose two and a half hours afterwards. […] The animals are killed 5 hours after application of the aspirin, the stomachs are prepared, and the number and size of the lesions is evaluated with a stereomicroscope.

[2] = tested on: ulcer induced by phenylbutazone; assay: Anti-ulcerous activity, ulcer from phenylbutazone (9-keto sodium salt); format: in vivo, Female rats of the Wistar stock
Experimental: The anti-ulcerous activity of the compound in question is tested on an ulcer induced by aspirin and on an ulcer induced by phenyl butazone. In both models the mucous lesions are localized in the glandular section of the stomach. Female rats of the Wistar stock weighing 140-170 g are involved. 24 hours before the start of the test the rats are made to fast, while they are allowed water at will. Each test group consists of 12 animals. For the formation of the ulcer, 200 mg of phenylbutazone/kg in 2 ml of 0.5% gum arabic are administered to the animals orally. 10 minutes before administration of phenylbutazone, and 21/2 hours afterwards, substance in question is administered orally (in 0.5% gum arabic solution) or intravenously (in 0.9% sodium chloride solution) in variable doses (see table). The animals are killed 5 hours after administration of phenylbutazone, the stomachs are prepared and examined under a stereomicroscope, to evaluate the number and size of the lesions.

[3] = Triglyceridemia and cholesterolemia in rats given alcohol 10%; format: in vivo, Male Sprague-Dawley rats; details: 1 week endoperitoneal once daily (CPIB, BBA 200 mg/kg; C83 50 mg/kg); for Cholesterolemia: controls 91.5 ± 6.6, alcohol 81.0 ± 4.6; for Triglyceridemia: controls 97.8 ± 5.1, alcohol 169.0 ± 25.0
Experimental: | Treatment for 1 week CPIB - BBA - 200 mg/kg endoperitoneal; C83 | 50mg/kg endoperitoneal; only one daily administration. | Male Sprague-Dawley rats 150 gr. | Groups of 6 rats.

[4] = Deepness and rapidity test (untitled table 6); format: in vivo, Male Sprague-Dawley rats; details: 200 mg/kg endoperitoneal; for Rapidity ± E.S.: controls 3.4 ± 0.3; for Deepness (mm ± E.S.): controls 74.9 ± 6.2
Experimental: | Treatment with the dose of 200 mg/kg endoperitoneal, one or two hours | before sacrifice. Male Sprague-Dawley rats with an average weight of 150 | gr.

[5] = LD50 by mouth in the mouse; format: in vivo; details: in vivo, po
Experimental: a. LD50 by mouth in the mouse about 3000 mg/kg
25 gr of XVI are dissolved in 400 ml of water with NaOH 15% to pH 9, filtered and lyophilized : 24 gr of sodium salt of XVI as a white solid are obtained, humidity (K. Fisher) 2.08%, no U.V. absorption, equivalent weight found 301.7, I.R. bands at 3400, 1765, 1565, 1460, 1420, 1378 cm^-1.
After 20 hours at 20°, the solvent is evaporated in vacuo, the residue is dissolved in 1300 ml of water treated with 120 ml of acetic acid, extracted with chloroform. After solvent evaporation, 65.1 gr of the compound XVIII are obtained, as an oil, I.R. bands at 3420, 3100, 1710 cm^-1. 35 gr of the compound XVIII are dissolved in 600 ml of water with NaOH to pH 9. The solution is filtered and lyophilized: 35.5 gr of sodium salt of 9-hydroxy-19,20-bis-nor-prostanoic acid are obtained, as white solid, humidity (K.Fisher) 1.73%, no U.V. absorption, equivalent weight found 320, I.R. bands at 3400, 3300, 1565, 1460, 1390 cm^-1, LD50 by mouth in mice about 3000 mg/kg.

## CCCCCCC1=C(CCCCCCC(=O)O)C(=O)CC1 [9-keto-19,20-bis-nor-8(12)-prostenoic acid, sodium salt]
[1]; i.v., 1 × 50 mg/kg, p<0.01
  Ulcer scale (x ± Sx): 5.08 ± 2.38
[1]; i.v., 2 × 5 mg/kg
  Ulcer scale (x ± Sx): 11.80 ± 5.1
[1]; oral and intravenous
  inhibition of ulcerating effect of aspirin (in words): inhibits considerably the ulcerating effect of the aspirin in both oral doses, and in the higher doses in the case of intravenous application
[1]; p.o., 2 × 10 mg/kg, controls 17.95 ± 2.98, p<0.05
  Ulcer scale (x ± Sx): 9.25 ± 2.11
[1]; p.o., 2 × 100 mg/kg, controls 17.95 ± 2.98, p<0.01
  Ulcer scale (x ± Sx): 5.83 ± 2.11
[2]; Rattus norvegicus, iv, 1 × 50 mg/kg
  inhibition at 50 mg/kg: 42.5%
[2]; Rattus norvegicus, iv, 2 × 5 mg/kg
  inhibition at 5 mg/kg: 83.1%
[2]; Rattus norvegicus, po, 2 × 10 mg/kg
  inhibition at 10 mg/kg: 54.9%
[2]; Rattus norvegicus, po, 2 × 100 mg/kg
  inhibition at 100 mg/kg: 80.2%
[2]; i.v., 1 × 50 mg/kg, controls 11.17 ± 2.77
  Ulcer scale (x ± Sx): 6.42 ± 3.41
[2]; i.v., 2 × 5 mg/kg, controls 11.17 ± 2.77, p<0.05
  Ulcer scale (x ± Sx): 3.00 ± 0.92
[2]; orally
  inhibition of ulcerating effect of phenylbutazone (in words): can inhibit the ulcerating effect of phenylbutazone depending on the doses (orally)
[2]; p.o., 2 × 10 mg/kg, controls 9.25 ± 1.81, p<0.05
  Ulcer scale (x ± Sx): 4.17 ± 0.91
[2]; p.o., 2 × 100 mg/kg, controls 9.25 ± 1.81, p<0.01
  Ulcer scale (x ± Sx): 1.83 ± 0.69

## CC(=Cc1ccccc1)CC(=O)O [BBA, β-benzalbutyric acid]
[3]
  Cholesterolemia: 66.5 ± 1.6
  Triglyceridemia: 143.4 ± 17.8

## CCOC(=O)C(C)(C)Oc1ccc(Cl)cc1 [CPIB, clofibrate]
[3]
  Cholesterolemia: 59.7 ± 2.9
  Triglyceridemia: 151.2 ± 10.4

## CC(=O)Oc1ccccc1C(=O)O [aspirin, reference compound]
[4]; 1 hour before sacrifice
  Rapidity ± E.S.: 1.2 ± 0.1
  Deepness (mm ± E.S.): 17.7 ± 2.4 mm
[4]; 2 hours before sacrifice
  Rapidity ± E.S.: 2.5 ± 0.2
  Deepness (mm ± E.S.): 48.4 ± 4.4 mm

## CCCCCCC12CCC(O)C1(CCCCCCC(=O)O)O2 (centres unmarked) [sodium salt of XVI, 9-hydroxy-8(12)-epoxy-19,20-bis-nor prostanoic acid]
[5]
  LD50: ~1500 mg/kg
